In patent publication US4766148A, “Biphenylylpropionic acid derivative and pharmaceutical composition containing the same” (priority 1983, dated 1988):
Like-named read-outs stand apart in the source and are kept apart here.

How the values were obtained:
[1] = system: carrageenan-induced edema; test: Inhibitory effect on carrageenan-induced edema; format: in vivo, Wistar male rats; conditions: Rattus norvegicus
Description: Five Wistar male rats weighing about 150 g. were used as one group. A 1% dispersion of carrageenan was injected intracutaneously into the foot pad of the right hind foot in a dose of 0.1 ml./rat. The compounds to be tested were orally administered to the rats fasted for 15 hours one hour before the carrageenan injection, or intravenously administered 2 hours […] the carrageenan injection. The volume of the foot subjected to the injection was measured by a mercury plethysmography 3 hours after the carrageenan injection on the test by oral route or 2 hours after the carrageenan injection on the test by intravenous route, and the carrageenan-induced edema was estimated from the obtained measurments.

[2] = Gastric ulceration (gastric irritation test); format: in vivo, Wistar male rats; conditions: rat, in vivo, po
Description: (§1) Five Wistar male rats weighing about 150 g. were used as one group. The rats were fasted for 24 hours before the test.
(§2) Six hours after orally administration of the compounds to be tested, there was observed an existence of gastric ulcer by the method of Okabe et al (Ohyoyakuri, 16, 241 to 247 (1978)). The UD50 values were calculated from the ulcer incidence of gastric ulcer by the method of Litchfield-Wilcoxon.

in vivo = conditions: mouse, po
Description: (§3) Eight male SLC-ddY mice 5 week old weighing 25 to 30 g. were used as one group. The compound to be tested was orally administered using a stomach tube. The animals were kept under observation for 2 weeks. The numbers of dead animals were counted and the LD50 values were calculated by the method of Litchfield Wilcoxon.

mice = test: Acute toxicity; conditions: 20160 min; for LD50: Table 5, male SLC-ddY mice, orally, 2 weeks observation, Litchfield Wilcoxon
Description: as §3

gastric ulcer = test: Gastric ulceration (gastric irritation test); format: in vivo, Wistar male rats; conditions: for UD50 (50% ulcerative dose): rat, in vivo, po; for UD50, gastric ulcer: Table 3, Wistar male rats, orally, six hours after administration, Litchfield-Wilcoxon
Description: as §1, §2

in vitro = conditions: human, plasma
Description: Each reaction mixture was incubated at 37° C. for one hour
The free FP formed by esterase in the plasma was extracted with benzene. After treating the extract with N,O-bis(trimethylsilylacetamide) for trimethylsilylation, the obtained material was determined by gas-liquid chromatography.

[3] = Hydrolysis of FP derivatives in rat plasma; format: in vitro ADME; conditions: Table 4; rat plasma (Compound No. 10), 37° C., one hour, amount corresponding to 50 μg. of FP per 1 ml.; read-out: Hydrolyzing rate
[4] = iv, 2 h, read-out: ED50, carrageenan-induced edema
[5] = iv, read-out: ED50 (50% effective dose), carrageenan-induced edema inhibition
[6] = po, read-out: ED50 (50% effective dose), carrageenan-induced edema inhibition
[7] = po, read-out: ED50, carrageenan-induced edema
[8] = Table 3, Wistar male rats, orally, six hours after administration, Litchfield-Wilcoxon, read-out: UD50, gastric ulcer
[9] = iv, Table 1, rats, i.v., read-out: ED50 (50% effective dose), carrageenan-induced edema inhibition
[10] = iv, Table 2, Wistar male rats, i.v. 2 hours after carrageenan, read-out: ED50, carrageenan-induced edema
[11] = po, Table 1, rats, p.o., read-out: ED50 (50% effective dose), carrageenan-induced edema inhibition
[12] = po, Table 2, Wistar male rats, p.o. one hour before carrageenan, measured 3 hours after carrageenan, read-out: ED50, carrageenan-induced edema

CC(=O)OC(C)OC(=O)C(C)c1ccc(-c2ccccc2)c(F)c1 (centres unmarked) [Compound 1, 1-(Acetoxy)ethyl 2-(2-fluoro-4-biphenylyl)propionate]
ED50 [1, 4]: 0.05 mg/kg
ED50 [1, 5]: 0.05 mg/kg
ED50 [1, 6]: 0.5 mg/kg
ED50 [1, 7]: 0.5 mg/kg
TD50 at 6 h [2, 8]: 2.5 mg/kg
LD50 at 336 h (in vivo): 650 mg/kg

CCC(=O)OC(C)OC(=O)C(C)c1ccc(-c2ccccc2)c(F)c1 (centres unmarked) [Compound 2, 1-(Propionyloxy)ethyl 2-(2-fluoro-4-biphenylyl)propionate]
ED50 [1, 4]: 0.06 mg/kg
ED50 [1, 5]: 0.06 mg/kg
ED50 [1, 6]: 0.7 mg/kg
ED50 [1, 7]: 0.7 mg/kg
TD50 at 6 h [2, 8]: 3 mg/kg
LD50 at 336 h (in vivo): 800 mg/kg

CC(OC(=O)C(C)C)OC(=O)C(C)c1ccc(-c2ccccc2)c(F)c1 (centres unmarked) [Compound 3, 1-(isobutyryloxy)ethyl 2-(2-fluoro-4-biphenylyl)propionate]
ED50 [1, 4]: 0.1 mg/kg
ED50 [1, 5]: 0.1 mg/kg
ED50 [1, 6]: 1.5 mg/kg
ED50 [1, 7]: 1.5 mg/kg
TD50 at 6 h [2, 8]: 5 mg/kg
LD50 at 336 h (in vivo): 880 mg/kg

CC(OC(=O)C(C)c1ccc(-c2ccccc2)c(F)c1)OC(=O)C(C)(C)C (centres unmarked) [Compound 4, 1-(pivaloyloxy)ethyl 2-(2-fluoro-4-biphenylyl)propionate]
ED50 [1, 9]: 0.6 mg/kg
ED50 [1, 10]: 0.6 mg/kg
ED50 [1, 11]: 2.5 mg/kg
ED50 [1, 12]: 2.5 mg/kg
TD50 at 6 h [2]: 10 mg/kg
LD50 (50% lethal dose) (mice; mouse, in vivo, po): > 1000 mg/kg
LD50 at 336 h (in vivo): > 1000 mg/kg

CCCCCCCCCCCCCCCC(=O)OC(C)OC(=O)C(C)c1ccc(-c2ccccc2)c(F)c1 (centres unmarked) [Compound 5, 1-(palmitoyloxy)ethyl 2-(2-fluoro-4-biphenylyl)propionate]
ED50 [1, 9]: > 5 mg/kg
ED50 [1, 10]: > 5 mg/kg
ED50 [1, 11]: > 5 mg/kg
ED50 [1, 12]: > 5 mg/kg
TD50 at 6 h [2]: > 10 mg/kg
UD50 (50% ulcerative dose) (gastric ulcer; 6 h): > 10.0 mg/kg
LD50 (50% lethal dose) (mice; mouse, in vivo, po): > 1000 mg/kg
LD50 at 336 h (in vivo): > 1000 mg/kg

CCC(OC(C)=O)OC(=O)C(C)c1ccc(-c2ccccc2)c(F)c1 (centres unmarked) [Compound 6, 1-(Acetoxy)propyl 2-(2-fluoro-4-biphenylyl)propionate]
ED50 [1, 4]: 0.1 mg/kg
ED50 [1, 5]: 0.1 mg/kg
ED50 [1, 6]: 1.5 mg/kg
ED50 [1, 7]: 1.5 mg/kg
TD50 at 6 h [2, 8]: 5 mg/kg
LD50 at 336 h (in vivo): 900 mg/kg

C/C=C/C(=O)OC(C)OC(=O)C(C)c1ccc(-c2ccccc2)c(F)c1 (centres unmarked) [Compound 7, 1-(crotonoyloxy)ethyl 2-(2-fluoro-4-biphenylyl)propionate]
ED50 [1, 4]: 0.08 mg/kg
ED50 [1, 5]: 0.08 mg/kg
ED50 [1, 6]: 0.9 mg/kg
ED50 [1, 7]: 0.9 mg/kg
TD50 at 6 h [2, 8]: 4 mg/kg
LD50 at 336 h (in vivo): 800 mg/kg

CC(C)=CC(=O)OC(C)OC(=O)C(C)c1ccc(-c2ccccc2)c(F)c1 (centres unmarked) [Compound 8, [1-(3,3-dimethylacryloyloxy)ethyl]2-(2-fluoro-4-biphenylyl)propionate]
ED50 [1, 9]: 0.3 mg/kg
ED50 [1, 10]: 0.3 mg/kg
ED50 [1, 11]: 2.5 mg/kg
ED50 [1, 12]: 2.5 mg/kg
TD50 at 6 h [2]: 7 mg/kg
LD50 at 336 h (in vivo): 1000 mg/kg

CC=CC=CC(=O)OC(C)OC(=O)C(C)c1ccc(-c2ccccc2)c(F)c1 (centres unmarked) [Compound 9, [1-(2,4-Hexadienoyloxy)ethyl]2-(2-fluoro-4-biphenylyl) propionate]
metabolised at 1 h (in vitro): 20.4%
ED50 [1, 9]: 0.3 mg/kg
ED50 [1, 10]: 0.3 mg/kg
ED50 [1, 11]: 2 mg/kg
ED50 [1, 12]: 2 mg/kg
TD50 at 6 h [2]: 7 mg/kg
LD50 at 336 h (in vivo): 1000 mg/kg

CC(C(=O)OC1C(=O)OCC1(C)C)c1ccc(-c2ccccc2)c(F)c1 (centres unmarked) [Compound 10, 3,3-Dimethyl-2-[2-(2-fluoro-4-biphenylyl)propionyloxy]-γ-butyrolactone]
ED50 [1, 4]: 0.05 mg/kg
ED50 [1, 5]: 0.05 mg/kg
ED50 [1, 6]: 0.5 mg/kg
ED50 [1, 7]: 0.5 mg/kg
TD50 at 6 h [2, 8]: 2.5 mg/kg
LD50 at 336 h (in vivo): 670 mg/kg
metabolised at 1 h [3]: 72.3%

CC(C(=O)O)c1ccc(-c2ccccc2)c(F)c1 (centres unmarked) [FP, 2-(2-fluoro-4-biphenylyl)-propionic acid]
UD50, gastric ulcer (gastric ulcer; 360 min): 1.0 mg/kg
LD50 (50% lethal dose) (mice; Table 1, mice, p.o.): 440 mg/kg
LD50 (mice): 440 mg/kg

COc1ccc2c(c1)c(CC(=O)OCC(=O)O)c(C)n2C(=O)c1ccc(Cl)cc1 [acemethacin]
UD50 (50% ulcerative dose) (gastric ulcer; 360 min): 17.5 mg/kg
LD50 (50% lethal dose) (mice; Table 1, mice, p.o.): 18.0 mg/kg
LD50 (mice): 18.0 mg/kg

COc1ccc2c(c1)c(CC(=O)O)c(C)n2C(=O)c1ccc(Cl)cc1 [indomethacin]
UD50, gastric ulcer (gastric ulcer; 360 min): 5.0 mg/kg
LD50 (50% lethal dose) (mice; Table 1, mice, p.o.): 14.0 mg/kg
LD50 (mice): 14.0 mg/kg
